Reference: PubChem BioAssay AID2060606 (Molecular Pharmacology Branch, DTP, NCI, 2025)
“And” between values parts separate entries of the source, which are not always exact repeats. Equal values may be shown once.

Test system: 922993-354-T-J3-PDC complex spheroids, viability, % test/control
Test: Anticancer human tumor 922993-354-T-J3-PDC patient-derived endometrial carcinoma cell line growth inhibition [CLK]
Settings: for viability, T/C: stronger effect = lower value; for IC50: curve of compound
Description: A high-throughput screen of multi-cell type tumor spheroids was designed to identify active combinations of […] and targeted small molecules. Complex spheroids include a stromal component modeled by human endothelial cells (HUVEC) and fibroblasts modeled by human mesenchymal stem cells (MSCs). The concentration ranges selected for each drug and investigational agent were based upon clinically achievable concentrations if the clinical Cmax of the agent was known.
Compounds. The drugs and investigational agents: cirtuvivint (SM08502; NSC835563), CC-671 (NSC850746), vemurafenib (NSC761431), tapotoclax (NSC804041), sotorasib (NSC818433), adagrasib (NSC831453), MRTX-1133 (NSC836407), BAY2416964 (NSC825713), copanlisib (NSC816437), inavolisib (NSC800729), abemaciclib (NSC768073), osimertinib (NSC779217), entinostat (NSC756642), eltanexor (KPT-8602, NSC794443), venetoclax (NSC766270), ceralasertib (NSC777638), bortezomib (NSC756655), olaparib (NSC753686), talazoparib (NSC767125), alisertib (NSC759677), peposertib (NSC802822), gemcitabine (NSC613327), 5-fluorouracil (NSC19893), SN-38 (NSC673596), oxaliplatin (NSC266046), paclitaxel (NSC125973), and doxorubicin (NSC123127), were obtained from the National Cancer Institute (NCI) Developmental Therapeutics Program Chemical Repository. The FDA-approved anticancer drug set is available from the Developmental Therapeutics Program at https://dtp.cancer.gov/organization/dscb/obtaining/available plates.htm. […] The stock solutions were prepared in dimethyl sulfoxide (DMSO, Sigma-Aldrich, St. Louis, MO, cat. D2650), except for the platinum complexes which were prepared in saline (Quality Biological, Gaithersburg, MD, cat. 114-055-101), at 800-fold the tested concentration and stored at -70 degrees C prior to their use. All drugs and investigational agents were tested over a range starting from a high concentration at or near the clinical Cmax and decreasing in half-log increments. If the clinical Cmax for an agent had not been determined, the highest concentration tested was 10 microM.
Cell Culture. All cells were maintained in an incubator at 37 degrees C and 5% CO2 with 95% humidity. The PDC lines were cultured according to standard operating procedures established by the NCI PDMR. Briefly, all PDCs were thawed and cultured in Matrigel-coated flasks prepared with a working solution of 1X Ham's F-12 nutrient mix, without supplementation (Invitrogen, Waltham, MA, cat. 11765054), 100 U/mL penicillin-streptomycin (Invitrogen, cat. 15140122), and 2.5% Matrigel (Corning Inc., Corning, NY, cat. 354248) for the first three passages. The 947758-054-R-J2-PDC line was cultured in 6B/Colon 1A media, which includes advanced DMEM/F-12 (Thermo Fisher Scientific, cat. 12634028), 10 mM HEPES (Thermo Fisher Scientific, cat. 15630080), 1X GlutaMAX supplement (Thermo Fisher Scientific, cat. 35050061), 0.1 mg/mL primocin (InvivoGen, cat. ant-pm-2), 10% defined fetal bovine serum, heat inactivated (HyClone Laboratories Inc., cat. SH30070.03HI), 1.25 mM N-Acetyl-L-cysteine (Sigma-Aldrich, cat. A9165), 10 mM nicotinamide (Sigma-Aldrich, cat. N0636), 1X B-27 supplement (Thermo Fisher Scientific, cat. 17504044), 1X N-2 supplement (Thermo Fisher Scientific, cat. 17502048), and 10 microM Y-27632 dihydrochloride (Tocris Bioscience, cat. 1254). The 876862-298-R-J1-PDC was cultured in 6E media, which includes all 6B/Colon 1A media components plus 50% L-WRN conditioned media (ATCC, cat. CRL-3276), 50 ng/mL recombinant human EGF recombinant protein (hEGF; Thermo Fisher Scientific, cat. PHG0311), 10 ng/mL recombinant human fibroblast growth factor 10 (hGFG-10; PeproTech, cat. 100-26), 1 ng/mL recombinant human fibroblast growth factor 2 (hFGF-2; PeproTech, cat. 100-18B), and 1 µM prostaglandin E2 (PGE2; Tocris, cat. 2296). The 227483-062-R1-J1-PDC line was cultured in Panc media, containing all 6E components except hFGF-2, with the addition of 500 nM SB-431542 (Selleckchem, cat. S1067) and 10 nM gastrin (Tocris, cat. 3006). […]
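Further: spheroids exposed to the agents for 7 days before readout.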

Row | IC50 | Compound | viability, T/C (compound 0.0316 µM) | viability, T/C (compound 0.1 µM) | viability, T/C (compound 0.316 µM) | viability, T/C (compound 1 µM) | viability, T/C (compound 3.16 µM) | viability, T/C (compound 10 µM) | viability, T/C (compound 0.000949 µM) | viability, T/C (compound 0.003 µM) | viability, T/C (compound 0.00949 µM) | viability, T/C (compound 0.03 µM) | viability, T/C (compound 0.0949 µM) | viability, T/C (compound 0.3 µM)
1 | > 10 µM | C#Cc1c(F)ccc2cc(O)cc(-c3ncc4c(N5CC6CCC(C5)N6)nc(OCC56CCCN5CC(F)C6)nc4c3F)c12 (configuration not stated) | 99.4% and 98.9% | 82% and 83% | 95.2% and 109% | 93% and 94% | 98.1% and 104% | 95.9% and 101% | – | – | – | – | – | –
2 | 4.9 µM and 4.28 µM | C=C(F)C(=O)N1CCN(c2nc(OCC3CCCN3C)nc3c2CCN(c2cccc4cccc(Cl)c24)C3)CC1CC#N (configuration not stated) | 96.9% and 91.5% | 97.8% and 100% | 93.3% and 104% | 91.2% and 92% | 79.4% and 67.9% | 2.9% and 0.21% | – | – | – | – | – | –
3 | > 10 µM | C=CC(=O)N1CCN(c2nc(=O)n(-c3c(C)ccnc3C(C)C)c3nc(-c4c(O)cccc4F)c(F)cc23)C(C)C1 (configuration not stated) | 101% and 104% | 94.5% and 105% | 104% and 92% | 105% and 99.2% | 92.5% and 111% | 93% and 93.6% | – | – | – | – | – | –
4 | 7.31 µM and > 10 µM | CC1(C)CCC(CN2CCN(c3ccc(C(=O)NS(=O)(=O)c4ccc(NCC5CCOCC5)c([N+](=O)[O-])c4)c(Oc4cnc5[nH]ccc5c4)c3)CC2)=C(c2ccc(Cl)cc2)C1 | 96.7% and 84.1% | 90.2% and 99.4% | 110% and 101% | 123% and 95.5% | 85.6% and 121% | 36.7% and 82.9% | – | – | – | – | – | –
5 | > 10 µM | CC1COCCN1c1cc(C2(S(C)(=N)=O)CC2)nc(-c2ccnc3[nH]ccc23)n1 (configuration not stated) | 101% and 91.8% | 118% and 86.8% | 130% and 91.7% | 90.4% and 102% | 108% and 94.2% | 68.6% and 78.2% | – | – | – | – | – | –

Continued, molecule first:

Row | Compound | IC50 | viability, T/C (compound 0.0316 µM) | viability, T/C (compound 0.1 µM) | viability, T/C (compound 0.316 µM) | viability, T/C (compound 1 µM) | viability, T/C (compound 3.16 µM) | viability, T/C (compound 10 µM) | viability, T/C (compound 0.000949 µM) | viability, T/C (compound 0.003 µM) | viability, T/C (compound 0.00949 µM) | viability, T/C (compound 0.03 µM) | viability, T/C (compound 0.0949 µM) | viability, T/C (compound 0.3 µM)
6 | C=CC(=O)Nc1cc(Nc2nccc(-c3cn(C)c4ccccc34)n2)c(OC)cc1N(C)CCN(C)C | > 0.3 µM | – | – | – | – | – | – | 93.6% and 122% | 92.5% and 98.6% | 60.9% and 98.1% | 97.8% and 85.3% | 90.1% and 94.2% | 72.3% and 86.4%
7 | CC(=O)O[C@H]1C(=O)[C@@]2(C)[C@H]([C@H](OC(=O)c3ccccc3)[C@]3(O)C[C@H](OC(=O)[C@H](O)[C@@H](NC(=O)c4ccccc4)c4ccccc4)C(C)=C1C3(C)C)[C@]1(OC(C)=O)CO[C@@H]1C[C@@H]2O | 3.86 µM and 6.98 µM | 105% and 92.5% | 79% and 115% | 84% and 85.9% | 95.6% and 88.3% | 52.7% and 71.6% | 37.1% and 40.2% | – | – | – | – | – | –
8 | CC(C)CC(NC(=O)C(Cc1ccccc1)NC(=O)c1cnccn1)B(O)O (configuration not stated) | 0.00631 µM and 0.00744 µM | – | – | – | – | – | – | 91.1% and 99.8% | 85.1% and 72.4% | 30.7% and 48.4% | 2.06% and 11.1% | 0.41% and 2.23% | 0.17% and 0.49%
9 | CC(CO)NC(=O)c1cc(-c2ccc(Cl)cc2)nn(-c2cnn(C)c2)c1=O (configuration not stated) | > 10 µM | 107% and 97.1% | 106% and 87.2% | 98% and 86% | 97.1% and 81.7% | 102% and 95.1% | 74.8% and 64.1% | – | – | – | – | – | –
10 | CC(Nc1ccc2c(c1)OCCn1cc(N3C(=O)OCC3C(F)F)nc1-2)C(N)=O (configuration not stated) | 1.79 µM and 3.33 µM | 115% and 99.3% | 107% and 93.8% | 84.6% and 77.5% | 73.1% and 70.7% | 28.4% and 49% | 22.1% and 34.3% | – | – | – | – | – | –
11 | CCCS(=O)(=O)Nc1ccc(F)c(C(=O)c2c[nH]c3ncc(-c4ccc(Cl)cc4)cc23)c1F | > 10 µM | 113% and 92.8% | 79.7% and 76.8% | 97.7% and 113% | 111% and 94.1% | 65.2% and 95.7% | 59% and 65.5% | – | – | – | – | – | –
